The text below walks through data of patent US5985905A, “Indole derivatives for the treatment of osteoporosis” (priority 1996, dated 1999).

Assay [1] addresses bafilomycin-sensitive ATPase in chicken osteoclasts. As to the kind of experiment: Inhibition of bafilomycin-sensitive ATPase activity in purified osteoclast membrane vesicles (Pi release). The format is biochemical. As to conditions: chicken osteoclast membranes, read-out: IC50 (μM) APase assay. The protocol: Preparation of crude bone microsomes from calcium-starved egg-laying hens. Vesicles were prepared from medullar bone obtained from tibiae and femurs of egg-laying hens which were calcium-starved for at least 15 days. Briefly, bone fragments were scraped with a 24 scalpel blade, suspended in 40 ml of isolation medium (0.2 M sucrose, 50 mM KCl, 10 mM Hepes, 1 mM EGTA, 2 mM dithiotheitrol, pH 7.4) and filtered through a 100 μm pore size nylon mesh. The whole procedure was performed at 4° C. After homogenisation in a potter (20 strokes) in 40 ml of isolation medium an initial centrifugation (6,500×gmax ×20 min) was performed to remove mitochondria and lysosomes. […] The protein content was determined using a Biorad colourimetric kit according to Bradford [M. Bradford, Ana. […]
Inhibition of bafilomycin-sensitive ATPase activity was assessed in purified membrane vesicles by measuring the release of inorganic phosphate (Pi) during 30 min of incubation at 37° C. in a 96-well plate either in the presence or in the absence of bafilomycin Al. […] Absorbance at 650 nm was measured after 2 min using a microplate reader. Results are expressed as μmol (Pi)×mg protein^-1 ×hour^-1 and, for each experiment, represent the mean±sem of triplicates.

The test system of a further assay is osteoclast proton pump. As to conditions: avian osteoclast membrane vesicles, ATP-driven acidification; cited from earlier work.
The test system of a further assay is osteoclast cultures. Particulars: cited from earlier work.

As a reminder, the IC50 is the point on the concentration scale where inhibition reaches its midpoint. On to `O=C1OCCO/C1=C\C=C\c1cc2cc(Cl)c(Cl)cc2[nH]1` [Example 1, (2Z,4E) 3-[3-(5,6-Dichloro-1H-indol-2-yl)-2-propenyliden]-1,4-dioxan-2-one], for which the IC50 in assay [1] was determined as 8.5 µM.
In the case of `C[C@@H]1O[C@@H](O[C@H]2C[C@@H](O)[C@]3(CO)[C@H]4[C@H](O)C[C@]5(C)[C@@H](C6=CC(=O)OC6)CC[C@]5(O)[C@@H]4CC[C@]3(O)C2)[C@H](O)[C@H](O)[C@H]1O` [ouabain], the “inhibition of proton transport” value in the assay with osteoclast proton pump is given as “not inhibited”.
`COc1ccc2[nH]c([S+]([O-])Cc3ncc(C)c(OC)c3C)nc2c1` (centres unmarked) [omeprazole]: in the assay with osteoclast proton pump, the “inhibition of proton transport” value is “not inhibited”.
For the molecule `CCN1C(=O)C=CC1=O` [N-ethylmaleimide (NEM), N-ethylmaleimide], the “inhibition of proton transport” value in the assay on osteoclast proton pump is reported as “inhibited”.
For the molecule `[Na+].[Na+].[Na+].[O]=[V]([O-])([O-])[O-]` [sodium orthovanadate], the “inhibition of proton transport” value in the assay on osteoclast proton pump was “not inhibited”.
`Cc1nc2c(OCc3ccccc3)cccn2c1CC#N` [SCH 28080]: the “inhibition of proton transport” value with osteoclast proton pump is “not inhibited”.
For `CO/C1=C\C(C)=C\[C@@H](C)[C@@H](O)[C@@H](C)C/C(C)=C/C=C/[C@H](OC)[C@@H]([C@@H](C)[C@@H](O)[C@H](C)[C@@]2(O)C[C@@H](O)[C@H](C)[C@@H](C(C)C)O2)OC1=O` [bafilomycin A1], the “inhibition of proton transport” value with osteoclast proton pump is recorded as “inhibited”. Also, the “inhibition of bone resorption” value in the assay on osteoclast cultures is listed as “able to inhibit bone resorption”.
